Reference: ChEMBL document CHEMBL3576778, “Structure-Activity Relationship Studies of a Series of Semisynthetic Lipopeptides Leading to the Discovery of Surotomycin, a Novel Cyclic Lipopeptide Being Developed for the Treatment of Clostridium difficile-Associated Diarrhea” (J Med Chem, 2015)
Converted amounts (≈) assume the structure as drawn.

How the values were obtained:
Type in all cases: functional
Enterococcus faecium = assay: Antimicrobial activity against daptomycin-resistant Enterococcus faecium ATCC 6569 incubated anaerobically at 37 degC for 48 hrs by agar dilution method; conditions: ATCC 6569, 48 h
Enterococcus faecalis = assay: Antimicrobial activity against daptomycin-resistant Enterococcus faecalis ATCC 49452 incubated anaerobically at 37 degC for 48 hrs by agar dilution method; conditions: ATCC 49452, 48 h
Staphylococcus aureus = assay: Antimicrobial activity against daptomycin-susceptible Staphylococcus aureus ATCC 29213 incubated anaerobically at 37 degC for 48 hrs by agar dilution method; conditions: ATCC 29213, 48 h
Clostridioides difficile = assay: Antimicrobial activity against daptomycin-resistant Clostridium difficile NAP1 incubated anaerobically at 37 degC for 48 hrs by agar dilution method; conditions: NAP1, 48 h

Structure (SMILES) | MIC (Enterococcus faecium) | MIC (Enterococcus faecalis) | MIC (Staphylococcus aureus) | MIC (Clostridioides difficile)
CCCCCCCCCCCCC(=O)N[C@@H](Cc1c[nH]c2ccccc12)C(=O)N[C@@H](CC(N)=O)C(=O)N[C@@H](CC(=O)O)C(=O)N[C@@H]1C(=O)NCC(=O)N[C@@H](CCCN)C(=O)NC(CC(=O)O)C(=O)N[C@H](C)C(=O)N[C@@H](CC(=O)O)C(=O)NCC(=O)N[C@H](CO)C(=O)N[C@@H]([C@@H](C)CC(=O)O)C(=O)N[C@@H](CC(=O)c2ccccc2N)C(=O)O[C@@H]1C (single isomer, unassigned) | 8 µg/mL (≈ 4.81 µM) | 8 µg/mL (≈ 4.81 µM) | 0.5 µg/mL (≈ 0.301 µM) | 8 µg/mL (≈ 4.81 µM)
CCCCCCc1ccc(C(=O)N[C@@H](Cc2c[nH]c3ccccc23)C(=O)N[C@@H](CC(N)=O)C(=O)N[C@@H](CC(=O)O)C(=O)N[C@@H]2C(=O)NCC(=O)N[C@@H](CCCN)C(=O)N[C@H](CC(=O)O)C(=O)N[C@H](C)C(=O)N[C@@H](CC(=O)O)C(=O)NCC(=O)N[C@H](CO)C(=O)N[C@@H]([C@@H](C)CC(=O)O)C(=O)N[C@@H](CC(=O)c3ccccc3N)C(=O)O[C@@H]2C)cc1 | 32 µg/mL (≈ 19.3 µM) | > 32 µg/mL | 1 µg/mL (≈ 0.604 µM) | 4 µg/mL (≈ 2.42 µM)
C[C@H]1NC(=O)C(CC(=O)O)NC(=O)[C@H](CCCN)NC(=O)CNC(=O)[C@@H](NC(=O)[C@H](CC(=O)O)NC(=O)[C@H](CC(N)=O)NC(=O)[C@H](Cc2c[nH]c3ccccc23)NC(=O)CCCCCC2CCCCC2)[C@@H](C)OC(=O)[C@H](CC(=O)c2ccccc2N)NC(=O)[C@H]([C@@H](C)CC(=O)O)NC(=O)[C@@H](CO)NC(=O)CNC(=O)[C@H](CC(=O)O)NC1=O (single isomer, unassigned) | 16 µg/mL (≈ 9.72 µM) | > 32 µg/mL | 1 µg/mL (≈ 0.607 µM) | 2 µg/mL (≈ 1.21 µM)
CCCCCOc1ccc(-c2ccc(C(=O)N[C@@H](Cc3c[nH]c4ccccc34)C(=O)N[C@@H](CC(N)=O)C(=O)N[C@@H](CC(=O)O)C(=O)N[C@@H]3C(=O)NCC(=O)N[C@@H](CCCN)C(=O)N[C@H](CC(=O)O)C(=O)N[C@H](C)C(=O)N[C@@H](CC(=O)O)C(=O)NCC(=O)N[C@H](CO)C(=O)N[C@@H]([C@@H](C)CC(=O)O)C(=O)N[C@@H](CC(=O)c4ccccc4N)C(=O)O[C@@H]3C)cc2)cc1 | 2 µg/mL (≈ 1.15 µM) | 4 µg/mL (≈ 2.31 µM) | 0.25 µg/mL (≈ 0.144 µM) | 2 µg/mL (≈ 1.15 µM)
CCCOc1ccc(-c2ccc(C(=O)N[C@@H](Cc3c[nH]c4ccccc34)C(=O)N[C@@H](CC(N)=O)C(=O)N[C@@H](CC(=O)O)C(=O)N[C@@H]3C(=O)NCC(=O)N[C@@H](CCCN)C(=O)N[C@H](CC(=O)O)C(=O)N[C@H](C)C(=O)N[C@@H](CC(=O)O)C(=O)NCC(=O)N[C@H](CO)C(=O)N[C@@H]([C@@H](C)CC(=O)O)C(=O)N[C@@H](CC(=O)c4ccccc4N)C(=O)O[C@@H]3C)cc2)cc1 | 32 µg/mL (≈ 18.8 µM) | > 32 µg/mL | 0.5 µg/mL (≈ 0.293 µM) | 4 µg/mL (≈ 2.35 µM)
C[C@H]1NC(=O)[C@@H](CC(=O)O)NC(=O)[C@H](CCCN)NC(=O)CNC(=O)[C@@H](NC(=O)[C@H](CC(=O)O)NC(=O)[C@H](CC(N)=O)NC(=O)[C@H](Cc2c[nH]c3ccccc23)NC(=O)C2CCCCCCCCCCC2)[C@@H](C)OC(=O)[C@H](CC(=O)c2ccccc2N)NC(=O)[C@H]([C@@H](C)CC(=O)O)NC(=O)[C@@H](CO)NC(=O)CNC(=O)[C@H](CC(=O)O)NC1=O | 32 µg/mL (≈ 19.3 µM) | > 32 µg/mL | 1 µg/mL (≈ 0.602 µM) | 4 µg/mL (≈ 2.41 µM)
CC(C)CCCCCCCCCCC(=O)N[C@@H](Cc1c[nH]c2ccccc12)C(=O)N[C@@H](CC(N)=O)C(=O)N[C@@H](CC(=O)O)C(=O)N[C@@H]1C(=O)NCC(=O)N[C@@H](CCCN)C(=O)NC(CC(=O)O)C(=O)N[C@H](C)C(=O)N[C@@H](CC(=O)O)C(=O)NCC(=O)N[C@H](CO)C(=O)N[C@@H]([C@@H](C)CC(=O)O)C(=O)N[C@@H](CC(=O)c2ccccc2N)C(=O)O[C@@H]1C (single isomer, unassigned) | 4 µg/mL (≈ 2.39 µM) | 16 µg/mL (≈ 9.54 µM) | 0.125 µg/mL (≈ 0.0745 µM) | 1 µg/mL (≈ 0.596 µM)
